≈ marks a conversion by molar mass, not a printed value.
Legend:
Type in all cases: cell-based
[1] = test system: Haemophilus Influenzae 351HT3; test: Activity on gram-negative bacterial strains
[2] = test system: Staphylococcus epidermidis 012GO11I; test: Liquid medium dilution method (MIC); conditions: 24 h incubation at 37°C, read-out: concentrations minimales inhibitrices (C.M.I.)
Protocol: (§1) Méthode des dilutions en milieu liquide
(§2) On a préparé une série de tubes dans lesquels on répartit une même quantité de milieu nutritif stérile. On distribue dans chaque tube des quantités croissantes du produit à étudier, puis chaque tube est ensemencé avec une souche bactérienne. Après incubation de vingt-quatre heures à l'étuve à 37°C, l'inhibition de la croissance est appréciée par transillumination de ce qui permet de déterminer les concentrations minimales inhibitrices (C.M.I.) exprimées en microgrammes/cm^3.

[3] = test system: Streptococcus mitis 02mitCB1; test: Liquid medium dilution method (MIC); conditions: 24 h incubation at 37°C, read-out: concentrations minimales inhibitrices (C.M.I.)
Protocol: as §1, §2

[4] = test system: Streptococcus pneumoniae 030ROIi; test: Liquid medium dilution method (MIC); conditions: 24 h incubation at 37°C, read-out: concentrations minimales inhibitrices (C.M.I.)
Protocol: as §1, §2

[5] = test system: Streptococcus agalactiae groupe B 02B1HT1; test: Liquid medium dilution method (MIC); conditions: 24 h incubation at 37°C, read-out: concentrations minimales inhibitrices (C.M.I.)
Protocol: as §1, §2

[6] = test system: Streptococcus faecium groupe D 02D3HT1; test: Liquid medium dilution method (MIC); conditions: Enterococcus faecium, 24 h incubation at 37°C, read-out: concentrations minimales inhibitrices (C.M.I.)
Protocol: as §1, §2

[7] = test system: Staphylococcus aureus 011UC4; test: Liquid medium dilution method (MIC); conditions: 24 h incubation at 37°C, read-out: concentrations minimales inhibitrices (C.M.I.)
Protocol: as §1, §2

[8] = test system: Streptococcus faecalis groupe D 02D2UC1; test: Liquid medium dilution method (MIC); conditions: Enterococcus faecalis, 24 h incubation at 37°C, read-out: concentrations minimales inhibitrices (C.M.I.)
Protocol: as §1, §2

[9] = test system: Streptococcus sp groupe G 02G0GR5; test: Liquid medium dilution method (MIC); conditions: 24 h incubation at 37°C, read-out: concentrations minimales inhibitrices (C.M.I.)
Protocol: as §1, §2

[10] = test system: Streptococcus agalactiae groupe B 02B1SJ1; test: Liquid medium dilution method (MIC); conditions: 24 h incubation at 37°C, read-out: concentrations minimales inhibitrices (C.M.I.)
Protocol: as §1, §2

[11] = test system: Streptococcus pyogenes groupe A 02A1UC1; test: Liquid medium dilution method (MIC); conditions: 24 h incubation at 37°C, read-out: concentrations minimales inhibitrices (C.M.I.)
Protocol: as §1, §2

[12] = test system: Streptococcus mitis 02mitGR16I; test: Liquid medium dilution method (MIC); conditions: 24 h incubation at 37°C, read-out: concentrations minimales inhibitrices (C.M.I.)
Protocol: as §1, §2

[13] = test system: Haemophilus Influenzae 351CA1; test: Activity on gram-negative bacterial strains
[14] = test system: Haemophilus Influenzae 351GR6; test: Activity on gram-negative bacterial strains
[15] = test system: Haemophilus Influenzae 351CB12; test: Activity on gram-negative bacterial strains

`CCC1OC(=O)C(C)=CC(C)C(OC2OC(C)CC(N(C)C)C2O)C(C)(OC)CC(C)C(=O)C(C)C2N(CCCCn3cnc(-c4cccnc4)c3)C(=O)OC12C` [Ex. 1, 2,3-didéhydro-11,12-didéoxy-3-de[(2,6-didéoxy-3-C-méthyl-3-O-méthyl-alpha-L-ribo-hexopyranosyl)oxy]6-O-méthyl-12,11-[oxycarbonyl[[4-[4-(3-pyridinyl)-1H-imidazol-1-yl]butyl]imino]]-érythromycine] was tested, and the “activité sur les souches bactériennes à gram^⊖” value [1] was “activité intéressante”, the MIC [2] was 0.15 µg/mL (≈ 0.188 µM) and the MIC [3] was ≤ 0.02 µg/mL. The MIC [4] was ≤ 0.02 µg/mL, the MIC [5] was ≤ 0.02 µg/mL and the MIC [6] was ≤ 0.02 µg/mL. The MIC [7] was 0.08 µg/mL (≈ 0.101 µM), the MIC [8] was ≤ 0.02 µg/mL and the MIC [9] was ≤ 0.02 µg/mL. For the same compound, the MIC [10] was 0.08 µg/mL (≈ 0.101 µM), the MIC [11] was ≤ 0.02 µg/mL and the MIC [12] was ≤ 0.02 µg/mL. The “activité sur les souches bactériennes à gram^⊖” value [13] was “activité intéressante”, the “activité sur les souches bactériennes à gram^⊖” value [14] was “activité intéressante” and the “activité sur les souches bactériennes à gram^⊖” value [15] was “activité intéressante”.

Reference: patent EP0946580B1, “NOVEL ERYTHROMYCIN DERIVATIVES, METHOD OF PREPARATION AND APPLICATION AS MEDICINES” (Aventis Pharma S.A., priority 1996, dated 1998)
